# System: peripheral blood mononuclear cells (PBMC)
# Assay: Lipid mediators of the resolution pathways in PBMC with PMA/A23187 stimulation
# Type: cell-based
# From the text: The next two sets of adjacent bars show a comparison of the effects of treatment with PMA plus A23187 in the presence of salicylic acid (on left of each group) and polysalicylic acid (on right of each group) in amounts of 1.6 micrograms per milliliter (μg/mL) and 8 micrograms per milliliter (μg/mL), respectively. […] The resultant SA derivative was evaluated at different doses on the synthesis of 8 intermediate lipids of the resolution pathways in PMBC with PMA/A23187 stimulation. PMBC cells were seeded and allowed to settle for 1 hour; the test compounds were then added and allowed to incubate for an additional hour. The inflammatory stimulus (PMA plus A23187) was added for one hour, and supernatants were collected and analyzed for lipid intermediates.
smiles,measurement,setting,value
"O=C(O)c1ccccc1O [salicylic acid, 2-hydroxybenzoic acid]",14-HDOHE levels/production,"PMA plus A23187, 1.6 and 8 μg/mL (FIG. 1)",noticeable increase over the control
same,12-HETE levels/production,"PMA plus A23187, 1.6 and 8 μg/mL (FIG. 2)",noticeable increase over the control

# Source: patent publication US20170158599A1, “COMPOSITIONS AND METHODS COMPRISING SALICYLATES AND POLYSALICYLATES” (Biocogent, LLC, priority 2014, published 2017)
